In ChEMBL document CHEMBL1143458, “An efficient synthesis of argifin: a natural product chitinase inhibitor with chemotherapeutic potential” (Bioorg Med Chem Lett, 2005):

Assays:
[1] = Maximum rate of metabolism of compound; format: ADME; conditions: aspergillus fumigatus
Endochitinase B1 = Endochitinase B1 (Aspergillus fumigatus, UniProt Q873X9); experiment: Inhibitory activity against Chitinase B1 (AfChiB1) using fuorometric assay with 4-methylumbelliferyl-b-D-N,N0-diacetylchitobiose as substrate
[2] = tested on: CNC(=O)NC(=N)NCCC[C@@H]1NC(=O)[C@@H](C)NC(=O)C[C@@H](C(=O)O)NC(=O)C[C@@H](C(=O)O)NC(=O)[C@H](Cc2ccccc2)N(C)C1=O; experiment: Michaelis constant for compound binding to Chitinase B1; conditions: Aspergillus fumigatus

| Molecule | Vmax [1] | Ki (Endochitinase B1) | Km [2] |
| --- | --- | --- | --- |
| CNC(=O)NC(=N)NCCC[C@@H]1NC(=O)[C@@H](C)NC(=O)C[C@@H](C(=O)O)NC(=O)C[C@@H](C(=O)O)NC(=O)[C@H](Cc2ccccc2)N(C)C1=O [ARGIFIN] | 2.7 nM/s | 17 nM |  |
| Endochitinase B1 (Aspergillus fumigatus) (from UniProt Q873X9) |  |  | 10.4 µM |
